Experimental data: patent EP4610271B1, “SELF-ASSEMBLING POLYPEPTIDE AND USE THEREOF” (Success Bio-Tech Co., Ltd., priority 2023, dated 2026)

What was measured:
[1] = system: New Zealand rabbits; assay: Liver wound hemostasis model; format: in vivo
From the text: The animal (New Zealand rabbits) was anesthetized by 2% sodium pentobarbital via ear vein injection. The animal was then fixed in a supine position on the operating table. The abdominal fur was shaved, and the area was sterilized. A standard midline incision was made, and the left lobe of liver was exposed by dissecting the liver. A sterile gauze was placed beneath the liver. A 1.0 cm long and 0.3 cm deep wound was created on the liver lobe, and the wound was wiped with gauze. The test sample (approximately 1 mL) was injected deeply onto the wound until the entire wound area was covered. The hemostatic effect was observed and the hemostasis time was recorded.

[2] = State of peptide solution (solution or gel) on pH adjustment with NaHCO3; format: physicochemical; settings: for State of Peptide Under Different pH Conditions: gel: pH at which the peptide is a gel; for State of Peptide Under Different pH Conditions: solution: pH at which the peptide is a solution; for pH needed to stay in solution: typical value, concentration not stated (background, inventor's study)
Experimental: (§1) Unless otherwise specified, the solutions in this example refer to aqueous solutions prepared using purified water or sterile water as the solvent. Based on the AC-PRVDVRVDP-NH2 provided previously, the peptides AC-KLNLKLNLNL-NH2, AC-PRVDVRVKVRVDP-NH2, and AC-RADMSRADMS-NH2 were screened. The above-mentioned peptides were formulated into a 1 mL 2.5% w/v solution, to which 100 µL of 10-fold concentration PBS buffer was added and thoroughly mixed to achieve a final solution of approximately 1-fold PBS. […] Based on this, a similar sequence with liquid-solid phase transition capability, AC-PRVDVRVRVRVDP-NH2 (PRRVDP13), was further designed. At a concentration of 1% w/v, the pH of the two peptide solutions could be pre-adjusted to a certain level using a dropwise addition of 1% w/v NaHCO3 and shaking, without the peptide solution turning into a gel for several hours. However, at a concentration of 2% w/v, when the pH increased to around 3 using a dropwise addition of 1% w/v NaHCO3 and shaking, the peptide solution quickly turned into a gel. The classical sequence RADA16 and the original sequence PRVDP9 needed to be maintained under acidic conditions even at a lower concentration of 1% w/v to keep them in solution state. Otherwise, the solution would turn into a gel, and the color would turn white as the pH increased.

[3] = Liquid-to-solid phase transition triggered by PBS; format: physicochemical; settings: 2.5% w/v solution, about 1-fold PBS, FIG. 8
Experimental: (§2) The experimental methods are as follows. Peptide was prepared as a 1 mL solution with a concentration of 2.5% w/v. 100 µL of a 10-fold concentration PBS buffer was added and thoroughly mixed to make the final solution as approximately 1-fold PBS to trigger gelation. The gel strength, which is related to hemostatic ability, is usually represented by the storage modulus G'. […]. The experimental methods are as follows. 3 mL of a 2.5% w/v solution of each peptide was prepared using water for injection and then 600 µL of a 5-fold concentration PBS buffer was added in to trigger gel formation. A suitable amount of gel was placed on the rheometer testing stage, with the setting of the stress of the rheometer at 1 Pa, and the scanning frequency range from 0.1 to 10 Hz to measure the storage modulus G' and loss modulus G" of the gel. To measure the viscosity of the peptide solutions, each peptide was prepared into a 2.5% w/v solution using water for injection, and a creep scan was performed using a rheometer at shear rates ranging from 0.001S^-1 to 1000S^-1 to obtain viscosity data for each peptide solution, as shown in FIGs. 7D-7F.

[4] = Neutralisation of peptide solution by mixing with DMEM medium, pH measured; format: physicochemical; settings: for neutralization of acidity by mixing with DMEM medium: 2.5% w/v peptide solution
Experimental: As mentioned above, peptide solutions with relatively high concentrations (over 2% w/v) cannot be pre-adjusted to neutral pH before mixing with the cell suspension, and the acidity may be harmful to the cells. […] Therefore, despite the acidic nature of the 2.5% concentration solution, PRRVDP13 may still be used as a cell culture scaffold. The experimental methods are as follows. In a centrifuge tube, 1.5 mL of a 2.5% w/v self-assembling peptide solution was mixed with 1.5 mL of DMEM medium, and after gelation, additional medium was added to make a total volume of […], with a final peptide-to-medium ratio of 1:3. Alternatively, 1.5 mL of a 2.5% self-assembling peptide solution was mixed with 1.5 mL of DMEM medium to achieve a peptide-to-DMEM medium ratio of 1:1. The pH value of each group was then measured.

[5] = system: L929 cells; assay: 3D cell culture in peptide gel, microscopy and Calcein-AM/PI staining; format: cell-based; settings: L929 cell suspension mixed directly with peptide solution, about 48 hours, FIG. 6
Experimental: One potential application of ISAPs is to use them as scaffolds for supporting 3D cell culture. To validate their suitability as a 3D cell culture scaffold, L929 cells (purchased from the Kunming Cell Bank of the Chinese Academy of Sciences) that had been cultured for 48-72 hours and were in a vigorous growth phase were digested and then mixed with serum-containing DMEM medium for cell counting. The cell suspension was prepared at a concentration of 1×10^5 cells/mL with serum-containing DMEM medium. The cell suspension was mixed with the peptide in a specific ratio (60 µL:60 µL) and added to a 96-well culture plate. After gelation, 120 µL of serum-containing DMEM medium was added for cell culture. In this example, the ISAP solution was mixed with the cell suspension or cell culture medium to study their biocompatibility.
To test the biocompatibility of ISAPs, 60 µL of a 2.5% w/v peptide solution was mixed with an equal volume of DMEM medium in a cell culture plate to form a gel. Then, 120 µL of the aforementioned 1×10^5 cells/mL L929 cell suspension was loaded onto the pre-formed gel. 4 and 5. […] After approximately 48 hours of incubation in a cell incubator at an atmosphere of 5% CO2, cells were observed directly using a microscope or observed using a fluorescence microscope following staining with Calcein-AM and PI (Beyotime, C2015S) according to the manufacturer's instructions.

[6] = system: L929 cells; assay: Cell proliferation on pre-formed peptide gel (CCK-8 assay); format: cell-based; settings: gel of 2.5% w/v peptide solution and equal volume of DMEM, about 48 hours, CCK-8, FIGs. 4 and 5
Experimental: To test the biocompatibility of ISAPs, 60 µL of a 2.5% w/v peptide solution was mixed with an equal volume of DMEM medium in a cell culture plate to form a gel. Then, 120 µL of the aforementioned 1×10^5 cells/mL L929 cell suspension was loaded onto the pre-formed gel. […]. […] The cell proliferation assay was performed after culturing the cells in a cell incubator at an atmosphere of 5% CO2 for approximately 48 hours using a CCK-8 assay kit (Beyotime, C0038). For the PRRVDP13 peptide, the cell suspension was directly mixed with the peptide solution, and after the liquid-to-solid phase transition, cells were evenly distributed within the gel. The methods are as follows. 60 µL of the aforementioned L929 cell suspension of 1×10^5 cells/mL and 60 µL of PRRVDP13 peptide were added to a 96-well culture plate. After gelation, 120 µL of culture medium was added for cell culture. After approximately 48 hours of incubation in a cell incubator at an atmosphere of 5% CO2, cells were observed directly using a microscope or observed using a fluorescence microscope following staining with Calcein-AM and PI (Beyotime, C2015S) according to the manufacturer's instructions.

[7] = Rheometer measurement of gel storage modulus G' and loss modulus G"; format: physicochemical; settings: 2.5% w/v gel triggered by PBS, compared to RADA16 and PRVDP9, FIGs. 7A-7C
Experimental: as §2

[8] = Screening of dissolution and gel formation on mixing with PBS or DMEM; format: physicochemical; settings: 2.5% w/v solution mixed with 10-fold PBS (final about 1-fold) or equal volume of DMEM
Experimental: as §1

Compound	time to complete hemostasis ([1]; 1.25% w/v peptide solution with 1 mg/mL NaHCO3, about 1 mL on rabbit liver wound) [s]	time to complete hemostasis ([1]; 2.5% w/v peptide solution, about 1 mL on rabbit liver wound) [s]	bleeding after rinsing off the hydrogel ([1]; surface hydrogel rinsed off with normal saline after 2 minutes of hemostasis)	State of Peptide Under Different pH Conditions: gel ([2]; concentration 1% w/v)	State of Peptide Under Different pH Conditions: gel ([2]; concentration 2% w/v)	State of Peptide Under Different pH Conditions: solution ([2]; concentration 1% w/v)	State of Peptide Under Different pH Conditions: solution ([2]; concentration 2% w/v)	liquid-to-solid phase transition ability [3]	neutralization of acidity by mixing with DMEM medium [4]	pH of the peptide-DMEM mixture ([4]; 2.5% w/v, same volume ratio (1:1 or 1:3), compared with PRVDP9 and RADA16, FIG. 3)	cell viability within the gel [5]	cell proliferation on the peptide gel [6]	mechanical properties (storage modulus G') [7]	dissolution and gel formation [8]	pH needed to stay in solution [2]
Ac-PRVDVRVRVRVDP-NH2 [PRRVDP13, AC-PRVDVRVRVRVDP-NH2]	≤ 50	≤ 50	no new bleeding appeared	pH ≥ 6.29, gel	pH ≥ 3.25, gel	pH < 6.29, solution	pH < 3.25, solution	good liquid-to-solid phase transition ability	easily neutralized	significantly higher	majority of cells were viable	good proliferation	better mechanical properties		
Ac-PRVDVRVKVRVDP-NH2 [AC-PRVDVRVKVRVDP-NH2]				pH ≥ 4.05, gel	pH ≥ 3.20, gel	pH < 4.05, solution	pH < 3.20, solution							dissolved easily and formed a good gel	
Ac-PRVDVRVDP-NH2 [PRVDP9, AC-PRVDVRVDP-NH2, reference compound]				pH ≥ 3.50, gel		pH < 3.50, solution			relatively more difficult to neutralize						< 3
CC(=O)N[C@@H](CCCNC(=N)N)C(=O)N[C@@H](C)C(=O)N[C@@H](CC(=O)O)C(=O)N[C@@H](C)C(=O)N[C@@H](CCCNC(=N)N)C(=O)N[C@@H](C)C(=O)N[C@@H](CC(=O)O)C(=O)N[C@@H](C)C(=O)N[C@@H](CCCNC(=N)N)C(=O)N[C@@H](C)C(=O)N[C@@H](CC(=O)O)C(=O)N[C@@H](C)C(=O)N[C@@H](CCCNC(=N)N)C(=O)N[C@@H](C)C(=O)N[C@@H](CC(=O)O)C(=O)N[C@@H](C)C(N)=O [RADA16, AC-RADARADARADARADA-NH2, reference compound]				pH ≥ 3.40, gel		pH < 3.40, solution			relatively more difficult to neutralize						< 3
